{"source": "patent US5972625A", "about": "“Assays for inhibitors of leukocyte adhesion” (The Regents of the University of California, priority 1997, dated 1999)", "key": {"L-selectin [1]": {"target": "T1, L-selectin (Homo sapiens, UniProt P14151)", "T1 sequence (P14151 39-372)": "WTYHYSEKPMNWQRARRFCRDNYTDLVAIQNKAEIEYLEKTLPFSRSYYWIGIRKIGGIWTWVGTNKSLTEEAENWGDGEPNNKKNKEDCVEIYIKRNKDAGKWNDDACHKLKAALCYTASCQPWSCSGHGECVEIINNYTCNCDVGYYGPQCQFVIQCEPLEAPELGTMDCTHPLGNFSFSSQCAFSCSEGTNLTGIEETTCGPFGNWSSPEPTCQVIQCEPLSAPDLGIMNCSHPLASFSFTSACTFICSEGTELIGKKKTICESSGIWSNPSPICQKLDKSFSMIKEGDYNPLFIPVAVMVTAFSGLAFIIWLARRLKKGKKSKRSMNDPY", "settings": "without sulfate; cited from earlier work"}, "L-selectin [2]": {"target": "L-selectin", "experiment": "Inhibition of L-selectin binding to GlyCAM-1 (ELISA with L-selectin-IgG chimera)", "settings": "for Interaction of L-selectin with GlyCAM-1: FIG. 6, result in words", "method": "(§1) The CAMO2 antibody is diluted to a concentration of 1.6 μg/ml in PBS with 0.1% NaN3, and 100 μl of this solution is dispensed into each well of a 96-well plate. The plate is incubated overnight at 4° C. to allow adsorption of the antibody onto the solid support. The plate is then washed three times with PBS containing 0.1% tween, and blocked with 200 μl/well of a 3% solution of BSA in PBS for 2 hours at room temperature.\n(§2) A crude GlyCAM-1 preparation is produced by extracting mouse serum with chloroform/methanol solution, followed by dialysis against PBS. After removing the blocking solution, 100 μl of this solution is dispensed into each well, and the plate is incubated for 1 hour at room temperature.\nChimeric molecules of the invention and more specifically, complexes of L-selectin with a secondary antibody and streptavidin-alkaline phosphates are formed as follows:\n2 mg/ml L-selectin-IgG chimera\n(§3) 2/1000 dilution of biotinylated goat anti-human Fc F(ab')2 (Caltag)\n(§4) 2/1000 dilution of streptavidin-alkaline phosphatase (Caltag)\nIn PBS with 2% BSA and 5% normal rabbit serum\nIn a separate 96-well plate, 80 μl of serial dilutions of the test inhibitors dissolved in PBS are dispensed into each well. To each inhibitor-containing well is added 80 μl of the selectin-IgG/antibody/streptavidin-alkaline phosphatase complex solution. The plate is then incubated for 30 minutes at 4° C.\nThe plate containing CAMO2 antibody and captured GlyCAM-1 is washed three times with PBS/0.1% TWEEN detergent, and […] of each selectin complex/inhibitor mixture is transferred to the wells of the GlyCAM-containing plate. This plate is then incubated for 30 minutes at room temperature.\nFinally, the solutions are removed from the GlyCAM-1 plate and the plate is washed three times with PBS/0.1% TWEEN detergent. […] of alkaline phosphatase substrate solution (p-nitrophenyl phosphate in ethanolamine/MgCl2) buffer is added to each well to detect the presence of bound selectin complex and the plate is quantified with a 96-well plate reader at 405 nm."}, "P-selectin": {"target": "P-selectin", "experiment": "Inhibition of P-selectin binding to GlyCAM-1 (ELISA with P-selectin-IgG chimera)", "method": "as §1, §2\nChimeric molecules of the invention and more specifically, complexes of P-selection with a secondary antibody and streptavidin-alkaline phosphates are formed as follows:\n4 μg/ml P-selectin-IgG chimera\nas §3, §4\n(§5) In PBS with 0.2% BSA and 5% normal rabbit serum\n(§6) Assays as per Example 1-3 were used to determine IC50 's for the inhibition of L-, P- or E-selectin binding to GlyCAM-1 for a number of compounds."}, "E-selectin": {"target": "E-selectin", "experiment": "Inhibition of E-selectin binding to GlyCAM-1 (ELISA with E-selectin-IgG chimera)", "method": "as §1, §2\nChimeric molecules of the invention and more specifically, complexes of E-selection with a secondary antibody and streptavidin-alkaline phosphates are formed as follows:\n4 μg/ml E-selectin-IgG chimera\nas §3, §4, §5, §6"}, "[3]": {"test_system": "lymphocyte attachment to HEV", "settings": "literature; cited from earlier work"}, "[4]": {"test_system": "L-selectin, P-selectin and E-selectin", "experiment": "Binding of serum GlyCAM-1 to each of the different selectins", "settings": "Ig chimeras of the three selectins", "description": "(See FIG. 5). […] These specific conditions are described in detail in Examples 1-3."}}}
{"molecule": "sialyl Lewis^x oligosaccharide [sLe^x]", "values": [{"measurement": "Affinity for L-selectin", "setting": "L-selectin [1]", "result": "very low affinity"}]}
{"molecule": "O=P(O)(O)O[C@H]1[C@H](OP(=O)(O)O)[C@@H](OP(=O)(O)O)[C@H](OP(=O)(O)O)[C@@H](OP(=O)(O)O)[C@H]1OP(=O)(O)O", "note": "[phytic acid]", "values": [{"measurement": "IC50", "setting": "L-selectin [2]; L-selectin", "result": 2, "unit": "µM"}, {"measurement": "IC50", "setting": "P-selectin", "result": 0.2, "unit": "µM"}]}
{"molecule": "CC(=O)N[C@H]1C(O)O[C@H](CO)[C@@H](O[C@@H]2O[C@H](CO)[C@H](O)[C@H](OS(=O)(=O)O)[C@H]2O)[C@@H]1O[C@@H]1O[C@@H](C)[C@@H](O)[C@@H](O)[C@@H]1O", "note": "(stereo partly drawn) [3'-sulfo Lewis x]", "values": [{"measurement": "IC50", "setting": "L-selectin [2]; L-selectin", "result": 3000, "unit": "µM"}, {"measurement": "IC50", "setting": "P-selectin", "result": 3000, "unit": "µM"}, {"measurement": "IC50", "setting": "E-selectin", "result": 4000, "unit": "µM"}]}
{"molecule": "O=C(O)CN(CCN(CC(=O)O)CC(=O)O)CC(=O)O", "note": "[EDTA]", "values": [{"measurement": "Interaction of L-selectin with GlyCAM-1", "setting": "L-selectin [2]", "result": "inhibited"}]}
{"molecule": "O=S(=O)(O)OC[C@H]1O[C@@H](O[C@H]2[C@H](O)[C@@H](O)C(O)O[C@@H]2CO)[C@H](O)[C@@H](OS(=O)(=O)O)[C@H]1O", "note": "(stereo partly drawn) [3',6'-disulfo lactose]", "values": [{"measurement": "IC50", "setting": "L-selectin [2]; L-selectin", "result": 400, "unit": "µM"}]}
{"molecule": "O=S(=O)(O)OC[C@H]1O[C@@H](O[C@H]2[C@H](O)[C@@H](O)C(O)O[C@@H]2CO)[C@H](O)[C@@H](O)[C@H]1O", "note": "(stereo partly drawn) [6'-sulfo lactose]", "values": [{"measurement": "IC50", "setting": "L-selectin [2]; L-selectin", "result": 10000, "unit": "µM"}]}
{"molecule": "O=P(O)(O)OC[C@H]1OC(O)[C@@H](O)[C@@H](O)[C@@H]1O", "note": "(stereo partly drawn) [mannose-6-phosphate]", "values": [{"measurement": "Interaction of L-selectin with GlyCAM-1", "setting": "L-selectin [2]", "result": "inhibited"}, {"measurement": "IC50", "setting": "L-selectin [2]; L-selectin", "result": 1500, "unit": "µM"}, {"measurement": "Lymphocyte attachment to HEV", "setting": "[3]", "result": "prevent lymphocyte attachment to HEV"}]}
{"molecule": "O=S(=O)(O)OC[C@H]1O[C@@H](O[C@H]2[C@H](O)[C@@H](O)C(O)O[C@@H]2CO)[C@H](O)[C@@H](OS(=O)(=O)O)[C@H]1OS(=O)(=O)O", "note": "(stereo partly drawn) [3',4',6'-trisulfo lactose]", "values": [{"measurement": "IC50", "setting": "L-selectin [2]; L-selectin", "result": 200, "unit": "µM"}]}
{"molecule": "fucoidan", "values": [{"measurement": "Interaction of L-selectin with GlyCAM-1", "setting": "L-selectin [2]", "result": "inhibited"}, {"measurement": "IC50 for the inhibition of L-selectin binding to GlyCAM-1", "setting": "L-selectin [2]; L-selectin", "result": 0.2, "unit": "µg/mL"}, {"measurement": "IC50 for the inhibition of P-selectin binding to GlyCAM-1", "setting": "P-selectin", "result": 0.02, "unit": "µg/mL"}, {"measurement": "Lymphocyte attachment to HEV", "setting": "[3]", "result": "active"}]}
{"molecule": "3'-sulfo Lewis a", "values": [{"measurement": "IC50", "setting": "L-selectin [2]; L-selectin", "result": 1700, "unit": "µM"}, {"measurement": "IC50", "setting": "P-selectin", "result": 140, "unit": "µM"}, {"measurement": "IC50", "setting": "E-selectin", "result": 4000, "unit": "µM"}]}
{"molecule": "GlyCAM-1: a sulfated, fucosylated and sialylated glycoprotein of about 50 kd now termed GlyCAM-1 (protein, UniProt Q02596 20-151, looked up) Glycosylation-dependent cell …: LPGSKDELQMKTQPTDAIPAAQSTPTSYTSEESTSSKDLSKEPSIFREELISKDNVVIESTKPENQEAQDGLRSGSSQLEETTRPTTSAATTSEENLTKSSQTVEEELGKIIEGFVTGAEDIISGASRITKS", "values": [{"measurement": "Binding of serum GlyCAM-1 to the selectins", "setting": "[4]", "result": "will bind to each of the different selectins"}]}
